Measured values taken from ChEMBL document CHEMBL1135089, “Nonpeptide alpha(v)beta(3) antagonists. Part 2: constrained glycyl amides derived from the RGD tripeptide” (Bioorg Med Chem Lett, 2002).

What was measured:
[1] = molecular target: Integrin alpha-V/beta-3 (Homo sapiens, UniProt P05106+P06756); assay: Displacement of a non-peptide radioligand from human recombinant alphaV-beta3 integrin; type: protein-complex assay
[2] = organism: Mus musculus; assay: The ability of compound to inhibit the transformation of osteoblast-like cells originally derived from mouse calvaria, into osteoclasts by OCFORM assay; type: functional, cell-based

Sequence of Integrin alpha-V/beta-3 (P05106 27-788 limits assumed): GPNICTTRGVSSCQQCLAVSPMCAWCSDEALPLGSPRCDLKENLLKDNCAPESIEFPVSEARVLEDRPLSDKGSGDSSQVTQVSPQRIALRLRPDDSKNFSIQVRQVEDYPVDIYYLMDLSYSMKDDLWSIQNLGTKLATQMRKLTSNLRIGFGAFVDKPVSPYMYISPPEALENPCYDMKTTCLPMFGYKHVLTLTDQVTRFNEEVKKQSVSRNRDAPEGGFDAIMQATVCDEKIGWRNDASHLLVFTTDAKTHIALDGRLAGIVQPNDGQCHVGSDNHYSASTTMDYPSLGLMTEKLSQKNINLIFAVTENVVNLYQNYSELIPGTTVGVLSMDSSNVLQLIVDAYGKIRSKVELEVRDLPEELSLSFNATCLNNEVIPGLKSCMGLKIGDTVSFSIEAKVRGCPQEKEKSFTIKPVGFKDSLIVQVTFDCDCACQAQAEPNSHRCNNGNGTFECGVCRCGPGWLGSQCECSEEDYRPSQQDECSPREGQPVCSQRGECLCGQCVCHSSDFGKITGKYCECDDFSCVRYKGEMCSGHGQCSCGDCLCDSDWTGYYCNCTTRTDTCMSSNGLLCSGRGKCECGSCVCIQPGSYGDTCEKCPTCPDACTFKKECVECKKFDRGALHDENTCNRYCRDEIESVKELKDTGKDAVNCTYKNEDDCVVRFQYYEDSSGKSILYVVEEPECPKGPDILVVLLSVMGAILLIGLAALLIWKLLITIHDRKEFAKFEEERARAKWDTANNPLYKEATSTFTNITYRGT
Sequence of Integrin alpha-V/beta-3 (P06756 31-889 limits assumed): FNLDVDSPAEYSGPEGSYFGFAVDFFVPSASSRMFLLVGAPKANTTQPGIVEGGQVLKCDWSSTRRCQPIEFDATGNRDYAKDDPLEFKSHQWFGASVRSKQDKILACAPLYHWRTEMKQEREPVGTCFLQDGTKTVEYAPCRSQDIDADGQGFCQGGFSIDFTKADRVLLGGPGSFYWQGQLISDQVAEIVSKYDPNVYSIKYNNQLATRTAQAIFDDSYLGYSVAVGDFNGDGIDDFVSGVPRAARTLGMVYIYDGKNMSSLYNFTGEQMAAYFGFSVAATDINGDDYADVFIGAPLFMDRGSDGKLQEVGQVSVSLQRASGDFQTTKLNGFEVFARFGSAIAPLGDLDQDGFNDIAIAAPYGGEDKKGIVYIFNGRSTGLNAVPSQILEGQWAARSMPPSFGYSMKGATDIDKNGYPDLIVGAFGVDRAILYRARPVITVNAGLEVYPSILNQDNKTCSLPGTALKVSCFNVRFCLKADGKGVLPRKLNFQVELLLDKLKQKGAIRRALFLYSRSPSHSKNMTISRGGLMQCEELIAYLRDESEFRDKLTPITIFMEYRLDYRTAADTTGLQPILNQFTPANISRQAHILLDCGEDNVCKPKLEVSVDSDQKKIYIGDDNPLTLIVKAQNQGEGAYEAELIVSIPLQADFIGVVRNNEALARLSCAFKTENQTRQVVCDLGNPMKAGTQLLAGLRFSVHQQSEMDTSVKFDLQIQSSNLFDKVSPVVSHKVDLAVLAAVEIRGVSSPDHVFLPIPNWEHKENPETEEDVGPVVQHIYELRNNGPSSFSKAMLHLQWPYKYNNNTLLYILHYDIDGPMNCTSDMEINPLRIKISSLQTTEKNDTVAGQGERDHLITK
Sequence of Integrin alpha-V/beta-3 (P06756 891-1048 limits assumed): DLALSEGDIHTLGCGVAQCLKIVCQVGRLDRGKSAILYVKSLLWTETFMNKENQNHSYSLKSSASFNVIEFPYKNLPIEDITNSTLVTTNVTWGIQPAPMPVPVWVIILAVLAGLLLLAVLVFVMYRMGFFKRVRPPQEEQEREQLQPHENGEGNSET

Row | IC50 [1] [nM] | IC50 [2] [nM] | Structure (SMILES)
1 | > 10000 | – | N=C(N)NCCC[C@H](N)C(=O)NCC(=O)N[C@@H](CC(=O)O)C(=O)O
2 | 1.3 | – | O=C(O)C[C@H](NC(=O)CNC(=O)CCCc1ccc2c(n1)NCCC2)c1cccnc1
3 | 1.2 | 480 | O=C(O)C[C@H](NC(=O)CN1CCCC(CCc2ccc3c(n2)NCCC3)C1=O)c1cccnc1 (some centres undefined)
4 | – | 62 | O=C(O)C[C@H](NC(=O)CN1CC[C@H](CCc2ccc3c(n2)NCCC3)C1=O)c1cccnc1
5 | 12 | > 1000 | O=C(O)C[C@H](NC(=O)CN1CCN(CCc2ccc3c(n2)NCCC3)C1=O)c1cccnc1
6 | 111 | – | O=C(O)CCNC(=O)CNC(=O)CCCc1ccc2c(n1)NCCC2
7 | 0.94 | 79 | O=C(O)C[C@H](NC(=O)CN1CC[C@@H](CCc2ccc3c(n2)NCCC3)C1=O)c1cccnc1
8 | > 10000 | – | N=C(N)NCCCCC(=O)NCC(=O)NCCC(=O)O
9 | 2.9 | 150 | C#C[C@H](CC(=O)O)NC(=O)CN1CC[C@H](CCc2ccc3c(n2)NCCC3)C1=O
10 | 8.8 | – | C#C[C@H](CC(=O)O)NC(=O)CNC(=O)CCCc1ccc2c(n1)NCCC2
